{"source": "paper PMC10783114", "about": "“Establishment of a screening platform based on human coronavirus OC43 for the identification of microbial natural products with antiviral activity” (Microbiology Spectrum, 2023)", "key": {"HCoV-OC43 [1]": {"system": "HCoV-OC43", "test": "Resazurin-based CPE inhibition assay in HCoV-OC43-infected MRC-5 cells", "format": "cell-based, Human betacoronavirus OC43", "settings": "for antiviral activity against HCoV-OC43 infection in MRC-5 cells (in words): tested in both assays (CPE inhibition and HCS)"}, "HCoV-OC43 [2]": {"system": "HCoV-OC43", "test": "High-content screening assay, anti-OC43 immunostaining of infected MRC-5 cells", "format": "cell-based, Human betacoronavirus OC43"}, "[3]": {"test": "Resazurin cytotoxicity assay in non-infected MRC-5 cells", "settings": "human"}, "HCoV-OC43 [4]": {"system": "HCoV-OC43", "test": "RT-qPCR of extracellular HCoV-OC43 RNA in culture supernatants", "format": "cell-based, Human betacoronavirus OC43", "settings": "72 h incubation", "experimental": "Viral RNA from supernatants was purified using the Macherey-Nagel Nucleospin RNA Kit. RT-qPCR was performed in a single step using the One-Step TB Green PrimeScript RT-PCR Kit II (Takara Bio). The HCoV-OC43 nucleocapsid gene was amplified with the following primers: the forward primer 5′ […]-3′ and the reverse primer 5′ […]-3′ ([27]). A standard curve was generated with purified HCoV-RNA (Vircell)."}, "MRC-5 cells [5]": {"system": "MRC-5 cells", "test": "Resazurin cytotoxicity assay in non-infected MRC-5 cells", "settings": "MRC-5 cells"}, "MRC-5 cells [6]": {"system": "MRC-5 cells"}, "in vitro": {"test": "in vitro", "settings": "human"}, "HCoV-OC43 [7]": {"system": "HCoV-OC43", "parameters": "method as in PMID 30918074", "settings": "mouse model ref 29; cited from earlier work"}, "MERS": {"system": "MERS", "settings": "marmosets infected with MERS ref 35; cited from earlier work"}, "[8]": {"settings": "Betacoronavirus 1, OC43, MRC5, read-out: EC50 (HCS assay)"}, "[9]": {"settings": "CC50, non-infected MRC-5 cells, 96 h incubation, resazurin"}, "[10]": {"settings": "Betacoronavirus 1, MRC5, MRC-5 infected with HCoV-OC43 at 0.1 MOI, 96 h with drug, 5 days post-infection, resazurin readout, read-out: EC50 (CPE inhibition assay)"}, "[11]": {"settings": "Betacoronavirus 1, OC43, MRC5, infected MRC-5, 72 h incubation with drug, 4 days post-infection, read-out: EC50 (HCS assay)"}}, "note": "Like-named read-outs stand apart in the source and are kept apart here. Non-standard residues stand in square brackets, D forms with d. Residues, ends and D or L forms follow the SMILES beside them. dLac(3-vinyl) = C=CC[C@@H](O)C(=O)O; dHica = CC(C)C[C@@H](O)C(=O)O; NMeV = CN[C@H](C(=O)O)C(C)C; NMeA = CN[C@@H](C)C(=O)O; βAla = NCCC(=O)O"}
{"compound": "CCN(CC)CCCC(C)Nc1ccnc2cc(Cl)ccc12", "note": "(stereo not drawn) [Chloroquine, chloroquine]", "values": [{"measurement": "EC50", "setting": "HCoV-OC43 [1]; Betacoronavirus 1, OC43, MRC5, read-out: EC50 (CPE inhibition assay)", "value": 6.22, "unit": "µM"}, {"measurement": "EC50", "setting": "HCoV-OC43 [2]; [8]", "value": 1.23, "unit": "µM"}]}
{"compound": "C=CC[C@H]1OC(=O)CCNC(=O)[C@H](C)N(C)C(=O)[C@H](C(C)C)N(C)C(=O)[C@H]([C@@H](C)CC)NC(=O)[C@@H]2CCCN2C1=O", "note": "[Destruxin A, destruxin A] (cyclo([dLac(3-vinyl)]PI[NMeV][NMeA][βAla]))", "values": [{"measurement": "antiviral activity against HCoV-OC43 infection in MRC-5 cells (in words)", "setting": "HCoV-OC43 [1]", "value": "did not have an effect"}, {"measurement": "antiviral activity against HCoV-OC43 infection in MRC-5 cells (in words)", "setting": "HCoV-OC43 [1]; listed as destruxin A", "value": "non-active"}, {"measurement": "CC50 at 96 h", "setting": "[3]; [9]", "value": "~10", "unit": "µM"}]}
{"compound": "CC[C@H](C)[C@@H]1NC(=O)[C@@H]2CCCN2C(=O)[C@@H](CC(C)C)OC(=O)CCNC(=O)[C@H](C)N(C)C(=O)[C@H](C(C)C)N(C)C1=O", "note": "[Destruxin B, destruxin B] (cyclo([dHica]PI[NMeV][NMeA][βAla]))", "values": [{"measurement": "antiviral activity against HCoV-OC43 infection in MRC-5 cells (in words)", "setting": "HCoV-OC43 [1]", "value": "did not have an effect"}, {"measurement": "antiviral activity against HCoV-OC43 infection in MRC-5 cells (in words)", "setting": "HCoV-OC43 [1]; listed as destruxin B", "value": "non-active"}, {"measurement": "CC50 at 96 h", "setting": "[3]; [9]", "value": "~10", "unit": "µM"}]}
{"compound": "O=C1OCC(Cc2ccccc2)=C1c1ccccc1", "note": "[Gymnoascolide A, gymnoascolide A]", "values": [{"measurement": "antiviral activity against HCoV-OC43 infection in MRC-5 cells (in words)", "setting": "HCoV-OC43 [1]", "value": "showed activity"}, {"measurement": "EC50", "setting": "HCoV-OC43 [2]; infected MRC-5, 72 h incubation with drug, 4 days post-infection, read-out: EC50 (HCS assay)", "value": 20.6, "unit": "µM"}, {"measurement": "HCoV-OC43 RNA level in supernatant", "setting": "HCoV-OC43 [4]; 40 µM", "value": "under 20%"}, {"measurement": "HCoV-OC43 RNA level (viral load) in supernatant", "setting": "HCoV-OC43 [4]; 80 µM", "value": "below 5%"}, {"measurement": "toxicity against MRC-5 host cells (in words)", "setting": "MRC-5 cells [5]", "value": "no evident toxicity"}]}
{"compound": "CCCCC/C=C\\C/C=C\\CCCCCCCC(=O)O", "note": "[Linoleic acid, linoleic acid]", "values": [{"measurement": "EC50", "setting": "HCoV-OC43 [1]; [10]", "value": 25.6, "unit": "µM"}, {"measurement": "antiviral activity against HCoV-OC43 infection in MRC-5 cells (in words)", "setting": "HCoV-OC43 [1]", "value": "showed activity"}, {"measurement": "EC50", "setting": "HCoV-OC43 [2]; [11]", "value": 18.3, "unit": "µM"}, {"measurement": "HCoV-OC43 RNA load in supernatant", "setting": "HCoV-OC43 [4]; 15 µM", "value": "below 50%"}, {"measurement": "toxicity against MRC-5 host cells (in words)", "setting": "MRC-5 cells [6]", "value": "no evident toxicity"}, {"measurement": "CC50 at 96 h", "setting": "in vitro", "value": "> 40", "unit": "µM"}]}
{"compound": "COc1c(C)c2c(c(O)c1C/C=C(\\C)CCC(=O)OCCN1CCOCC1)C(=O)OC2", "note": "[Mycophenolate mofetil, mycophenolate mofetil]", "values": [{"measurement": "EC50", "setting": "HCoV-OC43 [1]; [10]", "value": 20.7, "unit": "µM"}, {"measurement": "antiviral activity against HCoV-OC43 infection in MRC-5 cells (in words)", "setting": "HCoV-OC43 [1]", "value": "showed activity"}, {"measurement": "EC50", "setting": "HCoV-OC43 [2]; [11]", "value": 1.91, "unit": "µM"}, {"measurement": "antiviral activity against HCoV-OC43 in a mouse model", "setting": "HCoV-OC43 [7]", "value": "no antiviral activity"}, {"measurement": "CC50", "setting": "in vitro", "value": "> 200", "unit": "µM"}, {"measurement": "side effects in vivo", "setting": "MERS", "value": "severe side effects"}]}
{"compound": "NC(=O)c1ncn([C@@H]2O[C@H](CO)[C@@H](O)[C@H]2O)n1", "note": "[Ribavirin, ribavirin]", "values": [{"measurement": "selectivity index", "setting": "HCoV-OC43 [1]", "value": "~8"}, {"measurement": "EC50", "setting": "HCoV-OC43 [1]; [10]", "value": 118, "unit": "µM"}, {"measurement": "antiviral activity against HCoV-OC43 infection in MRC-5 cells (in words)", "setting": "HCoV-OC43 [1]", "value": "showed activity"}, {"measurement": "EC50", "setting": "HCoV-OC43 [2]; [8]", "value": 92.1, "unit": "µM"}, {"measurement": "CC50 at 96 h", "setting": "[3]; non-infected MRC-5 cells", "value": "> 800", "unit": "µM"}]}
